Entries after “also recorded” stand apart in the source; their conditions may differ.
Experiments:
female 129S6/SvEv mice [1] = experiment: Contextual fear conditioning (CFC), 3-shock, freezing in training and context re-exposure
female 129S6/SvEv mice [2] = experiment: Elevated plus maze (EPM); format: in vivo, mouse; settings: 0.025 mg/kg, 1 week prophylactic drug, learned helplessness stress
Description: The EPM was administered as previously described (58), with the exception that videos were scored using ANY-maze behavioral tracking software (Stoelting Co., Wood Dale, Ill.).
We have previously shown that prophylactic (R,S)-ketamine attenuates helpless behavior in male mice (18). To validate these findings in females, female mice were administered saline, (R,S)-ketamine, or (2R,6R)-HNK one week prior to LH training (FIG. 4A). Two weeks later, mice were tested for escape latency and for depressive- and anxiety-like behaviors in the FST and elevated plus maze (EPM). CFC was again administered following these behavioral assays.

female 129S6/SvEv mice [3] = experiment: Forced swim test after 10-day chronic immobilization stress (CIS); format: in vivo, mouse; settings: 0.025 mg/kg, 1 week prophylactic drug
Description: The CIS procedure induces a depressive-like phenotype in test subjects and has both predictive and face validity (54). Here, we used an adapted protocol from Ramirez et al. (55).
As previously tested in male mice (18), we validated our findings in a model of chronic stress. […] Drug dosages were chosen based on results from FIG. 1 and used for the remainder of the project unless otherwise specified. One week later, a 10-day CIS protocol was administered. Subsequently, mice were tested in the FST.

[4] = Contextual Fear Conditioning Training, Dunnett test Sal vs. drug (10), 1 week prophylactic drug
[5] = Ovariectomized cohort, 1 week prophylactic drug, Contextual Fear Conditioning Re-exposure, FIG. 10B, Sham mice, K (10), (2R,6R)-HNK (0.025)
[6] = Ovariectomized cohort, 1 week prophylactic drug, Contextual Fear Conditioning Re-exposure, FIG. 10C, Sham mice, K (10), (2R,6R)-HNK (0.025)
[7] = Ovariectomized, E2/P4 replacement, 1 week prophylactic drug, Contextual Fear Conditioning Training, FIG. 10D, Vehicle vs E2/P4, same drug, K (10), (2R,6R)-HNK (0.025)
[8] = Sal vs. (2R,6R)-HNK (0.025), Fisher's PLSD, 1 week prophylactic drug, learned helplessness stress, Contextual Fear Conditioning Re-exposure
[9] = Sal vs. (2R,6R)-HNK (0.025), Fisher's PLSD, Stress, antidepressant drug/Contextual Fear Conditioning Training

## N[C@@]1(c2ccccc2Cl)CCC[C@@H](O)C1=O [(2R,6R)-HNK, (2R,6R)-hydroxynorketamine]
Female 129S6/SvEv mice [1]; [4]
  p, Freezing (min 1-5): 0.1798
  p, Freezing (min 4): 0.4387
  p, Freezing (min 5): 0.3423
Female 129S6/SvEv mice [1]; Ovariectomized cohort, 1 week prophylactic drug, Contextual Fear Conditioning Re-exposure, FIG. 10B, OVX mice, K (10), (2R,6R)-HNK (0.025)
  p, Freezing (min 1-5), Fisher's PLSD, OVX Sal vs OVX drug: 0.2290
Female 129S6/SvEv mice [1]; [5]
  * (significance), Freezing (min 1-5), Fisher's PLSD, Sham Sal vs Sham drug: * (* p<0.05)
  p, Freezing (min 1-5), Fisher's PLSD, Sham Sal vs Sham drug: 0.0244
Female 129S6/SvEv mice [1]; Ovariectomized cohort, 1 week prophylactic drug, Contextual Fear Conditioning Re-exposure, FIG. 10B, Sham vs OVX, same drug, K (10), (2R,6R)-HNK (0.025)
  p, Freezing (min 1-5), Fisher's PLSD, Sham drug vs OVX drug: 0.3764
Female 129S6/SvEv mice [1]; Ovariectomized cohort, 1 week prophylactic drug, Contextual Fear Conditioning Re-exposure, FIG. 10C, OVX mice, K (10), (2R,6R)-HNK (0.025)
  p, Freezing Average (min 1-5), Fisher's PLSD, OVX Sal vs OVX drug: 0.2290
Female 129S6/SvEv mice [1]; [6]
  * (significance), Freezing Average (min 1-5), Fisher's PLSD, Sham Sal vs Sham drug: * (* p<0.05)
  p, Freezing Average (min 1-5), Fisher's PLSD, Sham Sal vs Sham drug: 0.0244
Female 129S6/SvEv mice [1]; Ovariectomized cohort, 1 week prophylactic drug, Contextual Fear Conditioning Re-exposure, FIG. 10C, Sham vs OVX, same drug, K (10), (2R,6R)-HNK (0.025)
  p, Freezing Average (min 1-5), Fisher's PLSD, Sham drug vs OVX drug: 0.3764
Female 129S6/SvEv mice [1]; Ovariectomized, E2/P4 replacement, 1 week prophylactic drug, Contextual Fear Conditioning Re-exposure, FIG. 10E, E2/P4 mice, K (10), (2R,6R)-HNK (0.025)
  p, Freezing (min 1-5), Fisher's PLSD, E2/P4 Sal vs E2/P4 drug: 0.4219
Female 129S6/SvEv mice [1]; Ovariectomized, E2/P4 replacement, 1 week prophylactic drug, Contextual Fear Conditioning Re-exposure, FIG. 10E, Vehicle (hormone) mice, K (10), (2R,6R)-HNK (0.025)
  p, Freezing (min 1-5), Fisher's PLSD, Vehicle Sal vs Vehicle drug: 0.9324
Female 129S6/SvEv mice [1]; Ovariectomized, E2/P4 replacement, 1 week prophylactic drug, Contextual Fear Conditioning Re-exposure, FIG. 10E, Vehicle vs E2/P4, same drug, K (10), (2R,6R)-HNK (0.025)
  p, Freezing (min 1-5), Fisher's PLSD, Vehicle drug vs E2/P4 drug: 0.5588
Female 129S6/SvEv mice [1]; Ovariectomized, E2/P4 replacement, 1 week prophylactic drug, Contextual Fear Conditioning Re-exposure, FIG. 10F, E2/P4 mice, K (10), (2R,6R)-HNK (0.025)
  p, Freezing Average (min 1-5), Fisher's PLSD, E2/P4 Sal vs E2/P4 drug: 0.4219
Female 129S6/SvEv mice [1]; Ovariectomized, E2/P4 replacement, 1 week prophylactic drug, Contextual Fear Conditioning Re-exposure, FIG. 10F, Vehicle (hormone) mice, K (10), (2R,6R)-HNK (0.025)
  p, Freezing Average (min 1-5), Fisher's PLSD, Vehicle Sal vs Vehicle drug: 0.9324
Female 129S6/SvEv mice [1]; Ovariectomized, E2/P4 replacement, 1 week prophylactic drug, Contextual Fear Conditioning Re-exposure, FIG. 10F, Vehicle vs E2/P4, same drug, K (10), (2R,6R)-HNK (0.025)
  p, Freezing Average (min 1-5), Fisher's PLSD, Vehicle drug vs E2/P4 drug: 0.5588
Female 129S6/SvEv mice [1]; Ovariectomized, E2/P4 replacement, 1 week prophylactic drug, Contextual Fear Conditioning Training, FIG. 10D, E2/P4 mice, K (10), (2R,6R)-HNK (0.025)
  p, Freezing (min 1-5), Fisher's PLSD, E2/P4 Sal vs E2/P4 drug: 0.7901
Female 129S6/SvEv mice [1]; Ovariectomized, E2/P4 replacement, 1 week prophylactic drug, Contextual Fear Conditioning Training, FIG. 10D, Vehicle (hormone) mice, K (10), (2R,6R)-HNK (0.025)
  p, Freezing (min 1-5), Fisher's PLSD, Vehicle Sal vs Vehicle drug: 0.6290
Female 129S6/SvEv mice [1]; [7]
  * (significance), Freezing (min 1-5), Fisher's PLSD, Vehicle drug vs E2/P4 drug: ** (** p<0.01)
  p, Freezing (min 1-5), Fisher's PLSD, Vehicle drug vs E2/P4 drug: 0.0067
Female 129S6/SvEv mice [1]; [8]
  *, Freezing (min 1): * (* p<0.05)
  p, Freezing (min 1): 0.0399
Female 129S6/SvEv mice [1]; Sal vs. (2R,6R)-HNK (0.025), Fisher's PLSD, 3 day prophylactic drug/Contextual Fear Conditioning Training
  p, Freezing (min 5): 0.9911
Female 129S6/SvEv mice [1]; [9]
  p, Freezing (min 1-5): 0.2199
  p, Freezing (min 5): 0.0731
Female 129S6/SvEv mice [1]; Sal vs. (2R,6R)-HNK (0.025), t-test, 24 hour prophylactic drug/Contextual Fear Conditioning Re-exposure
  p, Freezing Average (min 1-5): 0.2334
Female 129S6/SvEv mice [1]; ovariectomized mice, hormone replacement
  Freezing during CFC Training, E2/P4+drug vs vehicle+drug: froze significantly more; also recorded: exhibited increased freezing
Female 129S6/SvEv mice [1]; ovariectomized mice, vehicle condition
  Freezing during CFC re-exposure vs saline: froze at comparable levels
Female 129S6/SvEv mice [1]; single i.p. injection 1 week before 3-shock CFC, all doses, female mice
  Freezing during re-exposure to the CFC training context vs saline: do not significantly alter freezing; also recorded: did not alter overall freezing
Female 129S6/SvEv mice [1]; single injection 1 week before stressor, female mice
  Attenuation of learned fear: do not alter learned fear; also recorded: do not attenuate learned fear
Female 129S6/SvEv mice [2]
  P, Sal vs. drug, Fisher's PLSD: Time in Closed Arms Average (min 1-6), Elevated Plus Maze: 0.3285
  P, Sal vs. drug, Fisher's PLSD: Time in Open Arms Average (min 1-6), Elevated Plus Maze: 0.9855
Female 129S6/SvEv mice [3]
  * (significance), Sal vs. drug, Fisher's PLSD: Immobility Time (min 1), Forced Swim Test Day 1: *** (*** p<0.0001)
  * (significance), Sal vs. drug, Fisher's PLSD: Immobility Time (min 1), Forced Swim Test Day 2: ** (** p<0.01)
  * (significance), Sal vs. drug, Fisher's PLSD: Immobility Time (min 2), Forced Swim Test Day 1: *** (*** p<0.0001)
  * (significance), Sal vs. drug, Fisher's PLSD: Immobility Time (min 3), Forced Swim Test Day 1: *** (*** p<0.0001)
  * (significance), Sal vs. drug, Fisher's PLSD: Immobility Time (min 4), Forced Swim Test Day 1: *** (*** p<0.0001)
  * (significance), Sal vs. drug, Fisher's PLSD: Immobility Time (min 5), Forced Swim Test Day 1: *** (*** p<0.0001)
  * (significance), Sal vs. drug, Fisher's PLSD: Immobility Time (min 5), Forced Swim Test Day 2: * (* p<0.05)
  * (significance), Sal vs. drug, Fisher's PLSD: Immobility Time (min 6), Forced Swim Test Day 1: *** (*** p<0.0001)
  * (significance), Sal vs. drug, Fisher's PLSD: Immobility Time (min 6), Forced Swim Test Day 2: ** (** p<0.01)
  * (significance), Sal vs. drug, Fisher's PLSD: Immobility Time Average (min 3-6), Forced Swim Test Day 2: * (* p<0.05)
  * (significance), Sal vs. drug, Fishers PLSD: Immobility Time Average (min 1-6), Forced Swim Test Day 1: *** (*** p<0.0001)
  p, Sal vs. drug, Fisher's PLSD: Immobility Time (min 1), Forced Swim Test Day 1: <0.0001
  p, Sal vs. drug, Fisher's PLSD: Immobility Time (min 1), Forced Swim Test Day 2: 0.0073
  p, Sal vs. drug, Fisher's PLSD: Immobility Time (min 2), Forced Swim Test Day 1: <0.0001
  p, Sal vs. drug, Fisher's PLSD: Immobility Time (min 2), Forced Swim Test Day 2: 0.8092
  p, Sal vs. drug, Fisher's PLSD: Immobility Time (min 3), Forced Swim Test Day 1: <0.0001
  p, Sal vs. drug, Fisher's PLSD: Immobility Time (min 4), Forced Swim Test Day 1: <0.0001
  p, Sal vs. drug, Fisher's PLSD: Immobility Time (min 5), Forced Swim Test Day 1: <0.0001
  p, Sal vs. drug, Fisher's PLSD: Immobility Time (min 5), Forced Swim Test Day 2: 0.0328
  p, Sal vs. drug, Fisher's PLSD: Immobility Time (min 6), Forced Swim Test Day 1: <0.0001
  p, Sal vs. drug, Fisher's PLSD: Immobility Time (min 6), Forced Swim Test Day 2: 0.0069
  p, Sal vs. drug, Fisher's PLSD: Immobility Time Average (min 3-6), Forced Swim Test Day 2: 0.0177
  p, Sal vs. drug, Fishers PLSD: Immobility Time Average (min 1-6), Forced Swim Test Day 1: <0.0001

From patent US11491120B2, “Pharmacological prophylactics against stress-induced affective disorders in females” (The Trustees of Columbia University in the City of New York, priority 2017, dated 2022)
